In article PMC9835228 (Journal of Translational Medicine, 2023):
Several values for one entry are separate records, joined by “and”; a condition that tells them apart may be missing. Identical values can stand only once. Like-named read-outs stand apart in the source and are kept apart here. Values belong to the molecule of their own block, whether it stands above or below them. Residues, ends and D or L forms follow the SMILES beside them.

Tests used:
in vivo = settings: female, NOD SCID, mouse, tumor (SK-BR-3 xenograft), iv, 0.37 MBq, total radioactivity
Method: The animals were randomly chosen for in vivo assays when the tumor size reached 100–150 mm^3 (1–2 weeks after inoculation).
Each mouse was injected with 0.37 MBq (~ 0.03 µg) of tracer to evaluate the distribution of the probe in tumors and major organs (4 mice/group). The mice were sacrificed and dissected at 0.5, 1 and 2 h p.i. Blood, tumor, liver, kidney and other major organs were collected and weighed, and their radioactivity was counted in a Wallac 1480 γ-counter (Perkin-Elmer, Waltham, MA). […] All biodistribution data are presented as the percentage of injected dose per gram of tissue (%ID/g).

HER2 protein = HER2 protein (Homo sapiens, UniProt P04626); test: Surface plasmon resonance of peptides toward HER2 protein; assay type: binding
Sequence of HER2 protein (P04626 23-1255): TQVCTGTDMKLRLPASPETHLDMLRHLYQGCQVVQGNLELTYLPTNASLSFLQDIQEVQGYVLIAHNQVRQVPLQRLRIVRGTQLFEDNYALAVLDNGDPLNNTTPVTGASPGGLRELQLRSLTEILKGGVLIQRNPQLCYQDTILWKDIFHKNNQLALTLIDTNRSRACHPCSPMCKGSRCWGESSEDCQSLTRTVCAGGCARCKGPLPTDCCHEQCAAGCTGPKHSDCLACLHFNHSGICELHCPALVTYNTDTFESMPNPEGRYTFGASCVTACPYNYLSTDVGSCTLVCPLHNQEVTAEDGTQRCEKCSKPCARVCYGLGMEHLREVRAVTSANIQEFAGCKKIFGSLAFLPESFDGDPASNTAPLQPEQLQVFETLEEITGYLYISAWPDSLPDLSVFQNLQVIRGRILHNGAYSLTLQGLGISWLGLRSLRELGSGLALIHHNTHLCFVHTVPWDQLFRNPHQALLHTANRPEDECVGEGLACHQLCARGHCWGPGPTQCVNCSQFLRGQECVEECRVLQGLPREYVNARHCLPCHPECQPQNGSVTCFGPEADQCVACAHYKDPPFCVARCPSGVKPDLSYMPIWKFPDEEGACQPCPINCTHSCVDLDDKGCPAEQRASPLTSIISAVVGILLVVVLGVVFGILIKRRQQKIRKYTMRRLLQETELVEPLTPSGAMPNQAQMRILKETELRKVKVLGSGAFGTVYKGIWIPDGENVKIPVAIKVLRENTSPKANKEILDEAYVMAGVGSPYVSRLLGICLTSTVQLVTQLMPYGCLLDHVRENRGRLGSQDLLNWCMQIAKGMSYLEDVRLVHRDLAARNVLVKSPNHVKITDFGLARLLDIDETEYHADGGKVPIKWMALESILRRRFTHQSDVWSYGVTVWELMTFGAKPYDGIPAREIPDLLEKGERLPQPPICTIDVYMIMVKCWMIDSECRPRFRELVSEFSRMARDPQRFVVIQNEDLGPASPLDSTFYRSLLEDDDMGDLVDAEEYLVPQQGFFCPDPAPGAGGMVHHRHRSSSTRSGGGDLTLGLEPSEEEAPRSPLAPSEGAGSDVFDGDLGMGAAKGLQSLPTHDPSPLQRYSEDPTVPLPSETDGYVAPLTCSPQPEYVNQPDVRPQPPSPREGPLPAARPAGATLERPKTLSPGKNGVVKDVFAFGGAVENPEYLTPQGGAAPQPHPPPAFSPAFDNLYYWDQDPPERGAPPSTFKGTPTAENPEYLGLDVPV

SMILES: CC(C)C[C@@H](NC(=O)[C@@H](CCCNC(=N)N)NC(=O)[C@@H](CC(C)C)NC(=O)[C@@H](CCC(=O)O)NC(=O)[C@@H](Cc1c[nH]c2ccccc12)NC(=O)[C@@H](CC(N)=O)NC(=O)[C@@H](CCCNC(=N)N)NC(=O)CCOCCOCCOCCOCCNC(=O)c1ccc(NN=Cc2ccccc2S(=O)(=O)O)nc1)C(=O)N[C@H](CCCCN)C(=O)O [^99mTc-HP-rk, metal not drawn]
tissue uptake at 0.5 h (in vivo): 1.94 ± 0.12 %ID/g

Kd (HER2 protein): 70 nM and 70.2 nM
SMILES: CC(C)C[C@H](NC(=O)[C@H](CCCNC(=N)N)NC(=O)[C@H](CC(C)C)NC(=O)[C@@H](N)CCCCN)C(=O)N[C@@H](CCC(=O)O)C(=O)N[C@@H](Cc1c[nH]c2ccccc12)C(=O)N[C@@H](CC(N)=O)C(=O)N[C@@H](CCCNC(=N)N)C(=O)O [H10F] (H-KLRLEWNR-OH)

SMILES: CC(C)C[C@@H](NC(=O)[C@@H](CCCNC(=N)N)NC(=O)[C@@H](CC(C)C)NC(=O)[C@@H](CCC(=O)O)NC(=O)[C@@H](Cc1c[nH]c2ccccc12)NC(=O)[C@@H](CC(N)=O)NC(=O)[C@@H](CCCNC(=N)N)NC(=O)CCCCCCCNC(=O)CC[C@H](N)C(=O)NCCCCCCCC(=O)N[C@H](CCCNC(=N)N)C(=O)N[C@H](CC(N)=O)C(=O)N[C@H](Cc1c[nH]c2ccccc12)C(=O)N[C@H](CCC(=O)O)C(=O)N[C@H](CC(C)C)C(=O)N[C@H](CCCNC(=N)N)C(=O)N[C@H](CC(C)C)C(=O)N[C@H](CCCCN)C(=O)O)C(=O)N[C@H](CCCCN)C(=O)O [Ark2]
Kd (HER2 protein; read-out: dissociation constant (KD) to HER2 protein, SPR, Plexera PlexArray HT, Cys-peptides printed on gold chip, HER2 protein 8.8-70.4 nM in PBS, from fitted association/dissociation rates): 10 nM
